In ChEMBL document CHEMBL1149922, “Novel tryptophan dioxygenase inhibitors and combined tryptophan dioxygenase/5-HT reuptake inhibitors” (Bioorg Med Chem Lett, 1996):

Assays:
[1] = biological target: Tryptophan 2,3-dioxygenase (Rattus norvegicus, UniProt P21643); experiment: Compound was tested for inhibition of Tryptophan dioxygenase (TDO) from rat liver
[2] = species: Rattus norvegicus; experiment: Inhibition of 5-HT reuptake in rat […] was measured; format: functional, organism-based

Tryptophan 2,3-dioxygenase, sequence (P21643 whole entry): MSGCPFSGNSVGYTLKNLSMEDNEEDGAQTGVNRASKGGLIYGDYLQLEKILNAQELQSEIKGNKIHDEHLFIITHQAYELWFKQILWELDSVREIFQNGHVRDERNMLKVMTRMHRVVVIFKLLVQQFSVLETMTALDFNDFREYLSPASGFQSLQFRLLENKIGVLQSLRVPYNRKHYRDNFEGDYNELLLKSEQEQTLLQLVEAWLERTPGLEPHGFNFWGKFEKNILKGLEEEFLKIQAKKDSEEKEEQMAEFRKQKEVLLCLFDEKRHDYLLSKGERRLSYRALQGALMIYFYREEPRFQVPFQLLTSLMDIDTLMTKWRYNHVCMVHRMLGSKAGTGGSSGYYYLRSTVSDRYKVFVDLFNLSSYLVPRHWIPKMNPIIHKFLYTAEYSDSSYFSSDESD

SMILES | Ki [1] | IC50 [2]
C(=C\c1c[nH]c2ccccc12)/c1ccncc1 | 0.03 µM | 1.5 µM
Fc1ccc2[nH]cc(/C=C/c3cccnc3)c2c1 | 0.05 µM | 
C(=C\c1c[nH]c2ccccc12)/c1ccccn1 | 0.1 µM | 
Fc1ccc2[nH]cc(/C=C/c3ccncc3)c2c1 | 0.04 µM | 
Fc1ccc2c(/C=C/c3cccnc3)c[nH]c2c1 | 0.03 µM | 
Fc1ccc2c(/C=C/c3ccncc3)c[nH]c2c1 | 0.03 µM | 0.9 µM
C(=C\c1c[nH]c2ccccc12)/c1cccnc1 | 0.04 µM | 
